{"source": "patent US10654896B2", "about": "“FoxP3-binding peptides and uses thereof” (FUNDACIÓN PARA LA INVESTIGACIÓN MÉDICA APLICADA, priority 2016, dated 2020)", "note": "pIC50: −log10 of the molar value. Where a SMILES comes first, the peptide text is derived from it. [ ]: non-standard residue; d: D form."}
{"test_system": "murine Treg (CD25+ T cells)", "assay": "In vitro Treg suppression assay ([3H]-thymidine, anti-CD3)", "assay_type": "cell-based, BALB/c mice", "conditions": "peptide 100 μM", "procedure": "(§1) Spleen was harvested from BALB/c mice (Harlan Laboratories) and homogenized with a 1-ml syringe through a 100-μm cell strainer into a 50-ml conical tube and rinsed two times with PBS (Calcium free) to recover all cells. Cell homogenate was centrifuged at 300×g for 10 min and resuspended homogenate in 1 ml ACK Lysis buffer solution per spleen. Gently swirled for 2 min and then the reaction was quenched by adding 12 ml of PBS.\n(§2) Cells were centrifuged at 300×g for 10 min and purification of CD25− and CD25+ cells was carried out using magnetic beads (Miltenyi, CD25 microbead kit MOUSE, Ref 130-091-072)), following manufacturer's instructions. After labelling the cells, they were purified using Automacs-Pro device following manufacturer's instructions. Negative fraction corresponded to CD25− cells, which was used as effector Tconv cells. Positive fraction corresponded to CD25+ T cells that was used as Treg cells. Flow cytometry using anti-CD25-APC labeled and anti-CD4-FITC labelled antibodies was used to confirm the purity of isolated cells. Foxp3 expression was analyzed using the anti-Foxp3 staining antibody labelled with APC according to manufacturer's instructions (eBioscience). Purified cells were washed, resuspended in culture medium and diluted in T-cell culture medium (RPMI 1640, supplemented with 10% Fetal bovine serum and antibiotics) at a concentration of 2×10^5/ml (for Tregs) and 2×10^6/ml (for Tconv), for the assay (See below)\n(§3) The first in vitro assays to measure regulatory T-cell (Treg) function were described by two groups over a decade ago. […] With this knowledge, it was shown that CD4+CD25+ T cells could potently suppress the proliferation of activated CD4+CD25− and CD8+ T cells when the populations were cocultured in vitro. The following protocol describes a basic type of in vitro Treg suppression assay where Treg function is measured in the absence of antigen-presenting cells (APCs). In this protocol, activation is mediated by anti-CD3 antibodies and includes only two cell types, the target Tconv and Tregs. In this protocol, the experiment is setup in a 96-well round-bottom plate in a total volume of 200 μl. All reagents are prepared at four times their desired final concentration and added to assay in 50 μl such that the total volume is 200 μl, thus obtaining the desired final concentration of reactives. Purified Tregs and Tconv prepared as described above were diluted and adjusted in T-cell culture medium to 2×10^5/ml and 2×10^6/ml, respectively. In round-bottom 96-well plate, Tregs and Tconv were added in 50 μl of culture media each (RPMI 1640, supplemented with 10% Fetal bovine serum, and antibiotics). Anti-CD3 antibody was added in 50 μl (final concentration will be 2.5 μg/ml) as a stimulus to induce T cell proliferation. 50 μL of each one of the peptides to be tested were added in the corresponding wells at a concentration of 100 μM and those which provided the best results were tested again at lower concentrations to determine the IC50 value. The final volume was 200 μl in all wells. Tconv alone, Tconv plus anti-CD3, Tconv+anti-CD3+ Treg or Tconv+anti-CD3+Treg+peptides were tested by quadruplicate. Tconv plus anti-CD3 with no Treg was used to determine maximum proliferation of Tconv whereas Tconv+anti-CD3+ Treg was used to determine Treg inhibition. Plates were incubated at 37° C., 5% CO2 for 72 h and then pulsed with 0.1 μCi [^3H]-thymidine (in 25 μl of culture medium per well). After 8 h of incubation, cell cultures were harvested with a cell harvester (Perkin Elmer) and using unifilter plates. Plates were then dried at 50° C., and scintillation reagent (25 μl)(Microscint, Perkin Elmer) was added to each well. Counts per minute (cpm) were determined with a direct beta counter (TopCount, Perkin Elmer).\n(§4) The results of in vitro Treg suppression assays are most commonly reported as cpm when [^3H]-thymidine is incorporated into proliferating cells. […]", "units": {"Treg inhibition - % inhibition (100 μM)": "%"}}
{"molecule": "H-RDFQSFRKMWPFFAM-OH [compound 1]", "Treg inhibition - % inhibition (100 μM)": 115.6}
{"test_system": "murine Treg (CD25+ T cells)", "assay": "In vitro Treg suppression assay ([3H]-thymidine, anti-CD3)", "assay_type": "cell-based, BALB/c mice", "conditions": "read-out: IC50 (peptide concentration able to inhibit 50% of Treg activity)", "procedure": "as §1, §2, §3, §4"}
{"molecule": "CSCC[C@H](NC(=O)[C@H](C)NC(=O)[C@H](Cc1ccccc1)NC(=O)[C@H](Cc1ccccc1)NC(=O)[C@@H]1CCCN1C(=O)[C@H](Cc1c[nH]c2ccccc12)NC(=O)[C@H](CCSC)NC(=O)[C@H](CCCCN)NC(=O)[C@H](CCCNC(=N)N)NC(=O)[C@H](Cc1ccccc1)NC(=O)[C@H](CO)NC(=O)[C@H](CCC(N)=O)NC(=O)[C@H](Cc1ccccc1)NC(=O)[C@@H](CC(=O)O)NC(=O)[C@@H](N)CCCNC(=N)N)C(=O)O", "note": "[compound 3] (H-R[dD]FQSFRKMWPFFAM-OH)", "pIC50": 4.57}
{"molecule": "CSCC[C@H](NC(=O)[C@H](C)NC(=O)[C@H](Cc1ccccc1)NC(=O)[C@H](Cc1ccccc1)NC(=O)[C@@H]1CCCN1C(=O)[C@H](Cc1c[nH]c2ccccc12)NC(=O)[C@H](CCSC)NC(=O)[C@H](CCCCN)NC(=O)[C@H](CCCNC(=N)N)NC(=O)[C@H](Cc1ccccc1)NC(=O)[C@H](CO)NC(=O)[C@H](CCC(N)=O)NC(=O)[C@H](Cc1ccccc1)NC(=O)[C@H](C)NC(=O)[C@H](N)CCCNC(=N)N)C(=O)O", "note": "[compound 46] (H-[dR]AFQSFRKMWPFFAM-OH; N-terminus and C-terminus assumed)", "pIC50": 4.90}
{"molecule": "CSCC[C@H](NC(=O)[C@H](CCCCN)NC(=O)[C@H](CCCNC(=N)N)NC(=O)[C@H](Cc1ccccc1)NC(=O)[C@H](CO)NC(=O)[C@H](CCC(N)=O)NC(=O)[C@H](Cc1ccccc1)NC(=O)[C@H](C)NC(=O)[C@@H](N)CCCNC(=N)N)C(=O)N[C@@H](Cc1c[nH]c2ccccc12)C(=O)N1CCC[C@H]1C(=O)N[C@@H](Cc1ccccc1)C(=O)N[C@@H](Cc1ccccc1)C(=O)N[C@@H](C)C(=O)N[C@H](CCSC)C(=O)O", "note": "[compound 47] (H-RAFQSFRKMWPFFA[dM]-OH; N-terminus and C-terminus assumed)", "pIC50": 4.46}
{"molecule": "CSCC[C@H](NC(=O)[C@H](CCCCN)NC(=O)[C@H](CCCNC(=N)N)NC(=O)[C@H](Cc1ccccc1)NC(=O)[C@H](CO)NC(=O)[C@H](CCC(N)=O)NC(=O)[C@H](Cc1ccccc1)NC(=O)[C@H](C)NC(=O)[C@H](N)CCCNC(=N)N)C(=O)N[C@@H](Cc1c[nH]c2ccccc12)C(=O)N1CCC[C@H]1C(=O)N[C@@H](Cc1ccccc1)C(=O)N[C@@H](Cc1ccccc1)C(=O)N[C@@H](C)C(=O)N[C@H](CCSC)C(=O)O", "note": "[compound 48] (H-[dR]AFQSFRKMWPFFA[dM]-OH; N-terminus and C-terminus assumed)", "pIC50": 4.70}
{"molecule": "CSCC[C@@H]1NC(=O)[C@H](C)NC(=O)[C@H](Cc2ccccc2)NC(=O)[C@H](Cc2ccccc2)NC(=O)[C@@H]2CCCN2C(=O)[C@H](Cc2c[nH]c3ccccc23)NC(=O)[C@H](CCSC)NC(=O)[C@H](CCCCN)NC(=O)[C@H](CCCNC(=N)N)NC(=O)[C@H](Cc2ccccc2)NC(=O)[C@H](C)NC(=O)[C@H](CCC(N)=O)NC(=O)[C@H](Cc2ccccc2)NC(=O)[C@H](C)NC(=O)[C@H](CCCNC(=N)N)NC1=O", "note": "[compound 50] (cyclo(RAFQAFRKMWPFFAM))", "pIC50": 6.10}
{"molecule": "H-RDFQSFRKMWPFFAM-OH [compound 1]", "pIC50": 4.42}
